{"source": "ChEMBL document CHEMBL1154551", "about": "“Microbial transformation of benzosampangine” (2000)", "format_in_all_cases": "functional", "key": {"Candida albicans": {"tested_on": "Candida albicans", "assay": "Antimicrobial activity against Candida albicans"}, "Aspergillus fumigatus": {"tested_on": "Aspergillus fumigatus", "assay": "Antimicrobial activity against Aspergillus fumigatus"}, "Cryptococcus neoformans": {"tested_on": "Cryptococcus neoformans", "assay": "Antimicrobial activity against Cryptococcus neoformans"}}, "data": [{"compound": "O=C1c2ccccc2-c2nccc3c2c1nc1ccccc13", "note": "[BENZOSAMPANGINE]", "values": [{"measurement": "MIC", "setting": "Candida albicans", "result": 0.39, "unit": "µg/mL"}, {"measurement": "MIC", "setting": "Aspergillus fumigatus", "result": 0.39, "unit": "µg/mL"}, {"measurement": "MIC", "setting": "Cryptococcus neoformans", "result": 1.56, "unit": "µg/mL"}]}, {"compound": "C[C@@H]1[C@H](O)[C@@H](C)/C=C/C=C/C=C/C=C/C=C/C=C/C=C/[C@H](O[C@@H]2O[C@H](C)[C@@H](O)[C@H](N)[C@@H]2O)C[C@@H]2O[C@](O)(C[C@@H](O)C[C@@H](O)[C@H](O)CC[C@@H](O)C[C@@H](O)CC(=O)O[C@H]1C)C[C@H](O)[C@H]2C(=O)O", "note": "[AMPHOTERICIN B]", "values": [{"measurement": "MIC", "setting": "Cryptococcus neoformans", "result": 0.39, "unit": "µg/mL"}]}]}
